Holding throughout (conditions): Homo sapiens
Assay [1] deals with KB 3-1. Briefly: Compound was tested for cytotoxicity against paclitaxel sensitive KB-3-1 cell line. It counts as functional, cell-based.
Assay [2] can be described thus: Compound was tested for cytotoxicity against paclitaxel resistant KB-V1 cell line expressing P-glycoprotein.
Assay [3] has as its system KB. Briefly: Compound was tested for cytotoxicity against paclitaxel resistant KB-8-5 cell line expressing P-glycoprotein. It counts as functional, cell-based.

On to `CN[C@H](C(=O)N[C@H](C(=O)N(C)[C@H](/C=C(\C)C(=O)c1nccs1)C(C)C)C(C)(C)C)C(C)(C)c1ccccc1`, for which the IC50 (as a rule, the concentration needed to halve the response being measured) in assay [1] was determined as 0.582 µM; in assay [2] it was 1.79 µM; in assay [3], 0.565 µM.

For `CN[C@H](C(=O)N[C@H](C(=O)N(C)[C@H](C(=O)N1CCC[C@@H]1C(=O)O)C(C)C)C(C)(C)C)C(C)(C)c1ccccc1`, the IC50 in assay [1], in assay [2] and in assay [3] was greater than 3 µM throughout.

Consider `CN[C@H](C(=O)N[C@H](C(=O)N(C)[C@H](/C=C(\C)C(=O)N1CC=C[C@@H]1C(=O)O)C(C)C)C(C)(C)C)C(C)(C)c1ccccc1`, for which the values for the IC50 in assay [1], in assay [2] and in assay [3] were 0.058 µM, greater than 3 µM and 0.184 µM, respectively.

As for `CN[C@H](C(=O)N[C@H](C(=O)N(C)[C@H](/C=C(\C)C(=O)N1CCC[C@@H]1C(=O)O)C(C)C)C(C)(C)C)C(C)(C)c1ccc(C)c(C)c1`, the IC50 in assay [1] was 0.074 µM; in assay [2], greater than 3 µM; in assay [3], 0.519 µM.

On to `CN[C@H](C(=O)N[C@H](C(=O)N(C)[C@H](/C=C(\C)C(=O)N1CCC[C@@H]1C(=O)O)C(C)C)C(C)(C)C)C(C)(C)c1cccc(C)c1`, for which the results for the IC50 in assay [1], in assay [2] and in assay [3] were 0.07 µM, greater than 3 µM and 0.599 µM, respectively.

As to `CN[C@H](C(=O)N[C@H](C(=O)N(C)[C@H](/C=C(\C)C(=O)N1CCCC[C@@H]1C(=O)OC)C(C)C)C(C)(C)C)C(C)(C)c1ccccc1`, the IC50 in assay [1] was 0.0052 µM; in assay [2] it was 0.15 µM; in assay [3] it was 0.017 µM.

For `CN[C@H](C(=O)N[C@H](C(=O)N(C)[C@H](/C=C(\C)C(=O)N1CCC[C@@H]1C(=O)NCCc1ccccc1)C(C)C)C(C)(C)C)C(C)(C)c1ccccc1`, the IC50 was found to be 0.0064 µM in assay [1], 1.67 µM in assay [2] and 0.021 µM in assay [3].

For the molecule `CN[C@H](C(=O)N[C@H](C(=O)N(C)[C@H](/C=C(\C)[C@H](O)c1ccccc1)C(C)C)C(C)(C)C)C(C)(C)c1ccccc1`, the IC50 was 0.124 µM in assay [1], 0.632 µM in assay [2] and 0.186 µM in assay [3].

In the case of `CN[C@H](C(=O)N[C@H](C(=O)N(C)[C@H](/C=C(\C)C(=O)N1CC(O)C[C@@H]1C(=O)O)C(C)C)C(C)(C)C)C(C)(C)c1ccccc1` (some centres not stated), the IC50 was 0.184 µM in assay [1], greater than 3 µM in assay [2] and 1.85 µM in assay [3].

Turning to `CN[C@H](C(=O)N[C@H](C(=O)N(C)[C@H](/C=C(\C)C(=O)N1CCC[C@@H]1C(=O)OC)C(C)C)C(C)(C)C)C(C)(C)c1cccc(Cl)c1`, the results for the IC50 in assay [1], in assay [2] and in assay [3] were 0.0025 µM, 0.362 µM and 0.0062 µM, respectively.

Turning to `CN[C@H](C(=O)N[C@H](C(=O)N(C)[C@H](/C=C(\C)C(=O)N1CCC[C@H]1C(=O)O)C(C)C)C(C)(C)C)C(C)(C)c1ccccc1`, the IC50 is 0.515 µM in assay [1], greater than 3 µM in assay [2] and 1.58 µM in assay [3].

`CN[C@H](C(=O)N[C@H](C(=O)N(C)[C@H](C(=O)O)C(C)C)C(C)(C)C)C(C)(C)c1ccccc1`: the IC50 in assay [1], in assay [2] and in assay [3] was greater than 3 µM each time.

`CN[C@H](C(=O)N[C@H](C(=O)N(C)[C@H](/C=C(\C)C(=O)O)C(C)C)C(C)(C)C)C(C)(C)c1ccccc1` [TALTOBULIN]: the IC50 in assay [1] was determined as 0.00096 µM; in assay [2], 0.077 µM; in assay [3], 0.0023 µM.

On to `CN[C@H](C(=O)N[C@H](C(=O)N(C)[C@H](/C=C(\C)C(C)O)C(C)C)C(C)(C)C)C(C)(C)c1ccccc1` (some centres not stated), for which the IC50 in assay [1] was determined as 0.063 µM; in assay [2] it was 1.46 µM; in assay [3], 0.172 µM.

As to `CN[C@H](C(=O)N[C@H](C(=O)N(C)[C@H](/C=C(\C)C(C)=O)C(C)C)C(C)(C)C)C(C)(C)c1ccccc1`, the IC50 in assay [1] was found to be 0.403 µM; in assay [2], 2.36 µM; in assay [3] it was 0.664 µM.

In the case of `CN[C@H](C(=O)N[C@H](C(=O)N(C)[C@H](/C=C(\C)C(O)c1nccs1)C(C)C)C(C)(C)C)C(C)(C)c1ccccc1` (some centres not stated), the IC50 came out at 0.013 µM in assay [1], 0.364 µM in assay [2] and 0.019 µM in assay [3].

`CN[C@H](C(=O)N[C@H](C(=O)N(C)[C@H](/C=C(/C)C(=O)O)C(C)C)C(C)(C)C)C(C)(C)c1ccccc1`: the IC50 came out at 0.028 µM in assay [1], 2.63 µM in assay [2] and 0.058 µM in assay [3].

On to `CN[C@H](C(=O)N[C@H](C(=O)N(C)[C@H](/C=C(\C)C(=O)N1CCC[C@H]1C(=O)OC)C(C)C)C(C)(C)C)C(C)(C)c1ccccc1`, for which the IC50 was determined as 0.016 µM in assay [1], 1.1 µM in assay [2] and 0.051 µM in assay [3].

Turning to `CN[C@H](C(=O)N[C@H](C(=O)N(C)[C@H](/C=C(\C)C(=O)N1CCC[C@@H]1C(=O)OC)C(C)C)C(C)(C)C)C(C)(C)C1CCCCC1`, the IC50 in assay [1] was determined as 0.0037 µM; in assay [2], 0.493 µM; in assay [3] it was 0.016 µM.

On to `CN[C@H](C(=O)N[C@H](C(=O)N(C)[C@H](/C=C(\C)C(=O)CO)C(C)C)C(C)(C)C)C(C)(C)c1ccccc1`, for which the IC50 in assay [1] was 0.043 µM; in assay [2], 1.13 µM; in assay [3], 0.068 µM.

Regarding `CN[C@H](C(=O)N[C@H](C(=O)N(C)[C@H](/C=C(\C)C(=O)N1CC(O)C[C@@H]1C(=O)OC)C(C)C)C(C)(C)C)C(C)(C)c1ccccc1` (some centres not stated), the IC50 in assay [1] was 0.0035 µM; in assay [2], greater than 3 µM; in assay [3], 0.116 µM.

For `CN[C@H](C(=O)N[C@H](C(=O)N(C)[C@H](/C=C/C(=O)O)C(C)C)C(C)(C)C)C(C)(C)c1ccccc1`, the figures for the IC50 in assay [1], in assay [2] and in assay [3] were 0.191 µM, greater than 3 µM and 0.479 µM, respectively.

For the molecule `CN[C@H](C(=O)N[C@H](C(=O)N(C)[C@H](/C=C1\NC(=O)NC1=O)C(C)C)C(C)(C)C)C(C)(C)c1ccccc1`, the values for the IC50 in assay [1], in assay [2] and in assay [3] were 1.07 µM, greater than 3 µM and 1.74 µM, respectively.

`CN[C@H](C(=O)N[C@H](C(=O)N(C)[C@H](/C=C(\C)C(=O)N1CCCC[C@@H]1C(=O)O)C(C)C)C(C)(C)C)C(C)(C)c1ccccc1`: the IC50 in assay [1] is 0.064 µM; in assay [2], greater than 3 µM; in assay [3], 0.27 µM.

On to `CN[C@H](C(=O)N[C@H](C(=O)N(C)[C@H](/C=C/c1nn[nH]n1)C(C)C)C(C)(C)C)C(C)(C)c1ccccc1`, for which the IC50 in assay [1] was 1.15 µM; in assay [2], greater than 3 µM; in assay [3], 1.82 µM.

On to `CN[C@H](C(=O)N[C@H](C(=O)N(C)[C@H](/C=C(\C)C(=O)c1ccccc1)C(C)C)C(C)(C)C)C(C)(C)c1ccccc1`, for which the IC50 in assay [1] stood at 0.725 µM; in assay [2], 1.8 µM; in assay [3], 1.33 µM.

As to `CN[C@H](C(=O)N[C@H](C(=O)N(C)[C@H](/C=C(\C)c1ccccc1)C(C)C)C(C)(C)C)C(C)(C)c1ccccc1`, the IC50 in assay [1], in assay [2] and in assay [3] was greater than 3 µM throughout.

For `CN[C@H](C(=O)N[C@H](C(=O)N(C)[C@H](/C=C(\C)C(=O)N1CCC[C@@H]1C(=O)O)C(C)C)C(C)(C)C)C(C)(C)c1cccc(Cl)c1`, the IC50 in assay [1] is 0.062 µM; in assay [2], greater than 3 µM; in assay [3], 0.18 µM.

Regarding `CN[C@H](C(=O)N[C@H](C(=O)N(C)[C@H](/C=C1/C(=O)NC(=O)N1C)C(C)C)C(C)(C)C)C(C)(C)c1ccccc1`, the concentration for half-maximal inhibition (IC50) in assay [1] is 0.0051 µM; in assay [2], 0.23 µM; in assay [3], 0.0099 µM.

For `CN[C@H](C(=O)N[C@H](C(=O)N(C)[C@H](/C=C(\C)C(=O)N1CC=C[C@@H]1C(=O)OC)C(C)C)C(C)(C)C)C(C)(C)c1ccccc1`, the IC50 came to 0.0035 µM in assay [1], 0.272 µM in assay [2] and 0.017 µM in assay [3].

Consider `CN[C@H](C(=O)N[C@H](C(=O)N(C)[C@H](/C=C(\C)C(=O)N1CCC[C@@H]1C(=O)OC)C(C)C)C(C)(C)C)C(C)(C)c1cccc(C)c1`, for which the IC50 is 0.0016 µM in assay [1], 0.275 µM in assay [2] and 0.0062 µM in assay [3].

Regarding `CN[C@H](C(=O)N[C@H](C(=O)N(C)[C@H](/C=C(\C)CO)C(C)C)C(C)(C)C)C(C)(C)c1ccccc1`, the IC50 in assay [1] was determined as 0.454 µM; in assay [2], 1.59 µM; in assay [3] it was 0.447 µM.

Take `CN[C@H](C(=O)N[C@H](C(=O)N(C)[C@H](/C=C(\C)C(=O)N1CCC[C@@H]1C(=O)O)C(C)C)C(C)(C)C)C(C)(C)c1ccccc1`: the figures for the IC50 in assay [1], in assay [2] and in assay [3] were 0.062 µM, greater than 3 µM and 0.205 µM, respectively.

Take `CN[C@H](C(=O)N[C@H](C(=O)N(C)[C@H](/C=C(\C)C(=O)N1CCC[C@@H]1C(=O)OC)C(C)C)C(C)(C)C)C(C)(C)c1ccccc1`: the IC50 was determined as 0.0015 µM in assay [1], 0.291 µM in assay [2] and 0.0073 µM in assay [3].

For the molecule `CN[C@H](C(=O)N[C@H](C(=O)N(C)[C@H](/C=C(C)/C=C(\C)C(=O)O)C(C)C)C(C)(C)C)C(C)(C)c1ccccc1`, the results for the IC50 in assay [1], in assay [2] and in assay [3] were 0.027 µM, 1.58 µM and 0.053 µM, respectively.

In the case of `CN[C@H](C(=O)N[C@H](C(=O)N(C)[C@H](/C=C(\C)C(=O)c1ncc[nH]1)C(C)C)C(C)(C)C)C(C)(C)c1ccccc1`, the IC50 was 0.218 µM in assay [1], greater than 3 µM in assay [2] and 1.36 µM in assay [3].

For `CN[C@H](C(=O)N[C@H](C(=O)N(C)[C@H](/C=C(\C)C=O)C(C)C)C(C)(C)C)C(C)(C)c1ccccc1`, the IC50 turned out to be 0.454 µM in assay [1], 1.59 µM in assay [2] and 0.447 µM in assay [3].

For `CN[C@H](C(=O)N[C@H](C(=O)N(C)[C@H](/C=C(\C)C(O)c1ccccc1)C(C)C)C(C)(C)C)C(C)(C)c1ccccc1` (single isomer, unassigned), the IC50 came to 0.016 µM in assay [1], 0.19 µM in assay [2] and 0.022 µM in assay [3].

Consider `CN[C@H](C(=O)N[C@H](C(=O)N(C)[C@H](/C=C(\C)C(=O)N1CCC[C@@H]1C(=O)OC)C(C)C)C(C)(C)C)C(C)(C)c1ccc(C)c(C)c1`, for which the half-maximal inhibitory concentration (IC50) in assay [1] was 0.0019 µM; in assay [2] it was 0.363 µM; in assay [3] it was 0.015 µM.

The record behind these values is ChEMBL document CHEMBL1137171, “D-piece modifications of the hemiasterlin analog HTI-286 produce potent tubulin inhibitors” (Bioorg Med Chem Lett, 2004).
